Reference: patent EP2550959A1 (priority 2011, dated 2013)
Like-named read-outs stand apart in the source and are kept apart here.

Assays:
[1] = biological target: T1, 5-HT2B Rezeptoren von Schweinelungenarterien (Sus scrofa, UniProt F1SMV8); assay: Functional 5-HT2B receptor assay: 5-HT-induced relaxation of PGF2α-precontracted pig pulmonary arteries; type: biochemical, Schwein; conditions: conditions as in Beispiel 1
From the text: (§1) Dabei bedeutet der pA2 -Wert den negativ dekadischen Logarithmus der Konzentration eines Antagonisten, die es erforderlich macht, die Agonisten-Konzentration zu verdoppeln, um den Ausgangseffekt des Agonisten ohne Antagonisten wiederherzustellen.
Die vaskuläre Reaktion in Präparationen der Pulmonalarterien des Schweins, die mittels PGF2α vorkontrahiert waren, wurden als Assay für die spezifische Interaktion mit 5-HT2B-Rezeptoren verwendet (siehe Fig. 1A).

[2] = biological target: 5-HT2A Rezeptoren von Schweineherzkranzarterien (Sus scrofa, UniProt P50129); assay: Functional 5-HT2A receptor assay: 5-HT-induced contraction of pig coronary arteries; type: biochemical, Schwein
Sequence of 5-HT2A Rezeptoren von Schweineherzkranzarterien (P50129 whole entry): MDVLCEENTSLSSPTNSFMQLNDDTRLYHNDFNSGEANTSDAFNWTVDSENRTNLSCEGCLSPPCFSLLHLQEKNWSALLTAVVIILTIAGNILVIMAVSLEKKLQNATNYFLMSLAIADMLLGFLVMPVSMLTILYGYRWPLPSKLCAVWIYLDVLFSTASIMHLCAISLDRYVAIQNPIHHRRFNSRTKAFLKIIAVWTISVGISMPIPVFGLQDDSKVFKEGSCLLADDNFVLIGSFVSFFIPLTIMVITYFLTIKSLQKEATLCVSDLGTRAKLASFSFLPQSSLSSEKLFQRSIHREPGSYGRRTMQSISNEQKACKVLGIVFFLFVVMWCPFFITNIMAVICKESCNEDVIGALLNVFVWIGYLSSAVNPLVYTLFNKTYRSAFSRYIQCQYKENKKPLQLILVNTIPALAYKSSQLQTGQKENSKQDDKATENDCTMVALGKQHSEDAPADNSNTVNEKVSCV
From the text: as §1

[3] = Antioxidative effect / uptake of oxygen radicals; type: physicochemical; conditions: per single molecule
From the text: Die massenspektroskopisch in der Mehrheit nachweisbaren Reaktionsprodukte enthalten 2 Sauerstoffatome; es lassen sich aber auch Verbindungen mit 3, 4 und 5 Sauerstoff-Atomen nachweisen.
Ein typisches Charakteristikum von Massenspektra ist, dass Gipfel von [M+H]++18, d. h. Zusatz von Wasser, oder [M+H]++16, d.h. Zusatz eines Sauerstoffatoms, gefunden werden, wie auch Kombinationen von Wasser und Sauerstoffatomen. Wegen der niedrigen in den Entnahmeproben enthaltenen Substanzmengen und der Kurzlebigkeit der Reaktionsprodukte war deren Isolierung zur Strukturaufklärung nicht möglich. Das Lisuridmolekül weist mehrere Positionen auf, an denen Wasser und/oder ein Sauerstoffatom gebunden werden können (Fig. 4).

[4] = Stability of lisuride dissolved in water (HPLC); conditions: room temperature, HPLC (Fig. 3A)
[5] = biological target: T1, 5-HT2B Rezeptoren von Schweinelungenarterien; conditions: footnote d: from Glusa and Pertz, Brit. J. Pharmacol. 130, 692-698, 2000; cited from earlier work
[6] = system: monocrotalin-induzierten Lungenhochdruck; assay: Monocrotaline-induced pulmonary hypertension in the rat; type: in vivo, Sprague-Dawley Ratten; conditions: days 15-28, mean ± SEM (N=6)
From the text: Monocrotalin (MCT) ist ein Toxin aus Pflanzen der Spezies Crotalaria, welches nach einer einzigen Injektion in Ratten die Endothelzellen der pulmonalen Arterien schädigt mit folgender Hypertrophie der glatten Gefässmuskulatur und persistierendem schwerem pulmonalem Hochdruck. Die MCTinduzierte pulmonale Hypertension der Ratte ist ein gut etabliertes und validiertes Modell der humanen pulmonalen Hypertension und alle heute zugelassenen Therapeutika haben eine Wirkung in diesem Modell gezeigt, zumindest wenn sie vor dem toxisch bedingten Gewebeumbau angewendet wurden.
MCT (60mg/kg) wurde bei männlichen Sprague-Dawley Ratten als Einzelinjektion subkutan verabreicht und ein gleiches Volumen isotonischer Kochsalzlösung bei den Kontrolltieren injiziert. […] Dabei wurde die genannte Dosis der jeweiligen Testsubstanz morgens und abends in einem Volumen von je 2.0 ml an Gruppen von jeweils 6 Tieren gegeben, die an Tag 1 des Experiments mit MCT behandelt worden waren. Die gleiche Menge Wasser wurde den Kontrolltieren zugeführt.
Am Tag 28 des Experiments, zwei Stunden nach letztmaliger Substanzgabe, wurden die Tiere narkotisiert unter Verwendung von Pentobarbital. Eine Tracheotomie wurde durchgeführt und die Tiere unter Isofluran-Anästhesie beatmet. Der mittlere arterielle Systemdruck und der systolische Druck im rechten Herzventrikel wurden gemessen. Nach den Druckmessungen wurden die Tiere mit physiologischer Kochsalzlösung perfundiert und die rechte Lunge wurde zur Bestimmung des Kollagengehalts entfernt.
Die sc-Injektion von MCT, wie oben beschrieben, führt zu einer schweren Schädigung des pulmonalen Gefässendothels sowie überschießender Produktion von Bindegewebe und Entwicklung einer pulmonalen Hypertonie. Anhäufung von Kollagen, gemessen als Hydroxyprolin-Gehalt des Lungengewebes, und Anstieg des rechtsventrikulären systolischen Drucks reflektieren die beschriebenen strukturellen und funktionalen Veränderungen. Die möglichen therapeutischen und präventiven Effekte von Lisurid bzw. Tergurid wurden in dem vorgestellten Modell der pulmonalen Hypertension gemessen. […]

[7] = system: Menschliche glatte Muskelzellen mesenterialen Ursprungs; assay: 5-HT-stimulated proliferation of human smooth muscle cells (3H-thymidine uptake); type: cell-based; conditions: 10 µmol/l test substance, growth stimulated with 10-8 mol/l 5-HT; Fig. 2
From the text: Menschliche glatte Muskelzellen mesenterialen Ursprungs (Promo Cell) wurden entsprechend den Empfehlungen des Herstellers bis zur Bildung geschlossener Monolayers in 6 Platten mit PromoCell-Kulturmedium vermehrt und dann im gleichen Medium auf 24-Vertiefungsträgern für eine Zellzahl von 5x104 Zellen/Ansatz ausgesät. […] Zur Bestimmung des Zellwachstums wurde dann 3H-Thymidin (Amersham) zu den Zellkulturen hinzugegeben und diese für 24 Stunden inkubiert. Nach der Adhäsion der Zellen wurde das Kulturmedium durch ein Standardmedium mit 0.2% fetalem Kalbsserum zum Wachstumsstopp ersetzt und erneut 48 Stunden lang inkubiert.
Um antiproliferative Wirkungen der beschriebenen Substanzen zu testen, wurden die Zellkulturen dann zunächst mit einer Konzentration von 10 µmol/l der Prüfsubstanzen präinkubiert. […] Zur Messung des Wachstums der Zellen wurde dann 3H-Thymidin (Amersham) den Kulturen zugefügt und diese für 24 Stunden inkubiert. Danach erfolgten 2 Inkubationen in eisgekühlter Kochsalzlösung mit einem Phosphat-Puffer und danach 30 min Inkubation in eisgekühlter 10%iger Trichlor-Essigsäure bei 4°C. Die Zellen wurden dann in 0.1 molarer NaOH-Lösung inkubiert (0.5 ml/Inkubationsgefäss). Nach Neutralisierung mit Essigsäure wurde die 3H -Thymidin-Aufnahme mit Flüssig-Szintillation gemessen (als Dreifach-Bestimmung).

5-HT-induzierte Effekte = conditions: 2007], cited from earlier work

T1 sequence (F1SMV8 1-481): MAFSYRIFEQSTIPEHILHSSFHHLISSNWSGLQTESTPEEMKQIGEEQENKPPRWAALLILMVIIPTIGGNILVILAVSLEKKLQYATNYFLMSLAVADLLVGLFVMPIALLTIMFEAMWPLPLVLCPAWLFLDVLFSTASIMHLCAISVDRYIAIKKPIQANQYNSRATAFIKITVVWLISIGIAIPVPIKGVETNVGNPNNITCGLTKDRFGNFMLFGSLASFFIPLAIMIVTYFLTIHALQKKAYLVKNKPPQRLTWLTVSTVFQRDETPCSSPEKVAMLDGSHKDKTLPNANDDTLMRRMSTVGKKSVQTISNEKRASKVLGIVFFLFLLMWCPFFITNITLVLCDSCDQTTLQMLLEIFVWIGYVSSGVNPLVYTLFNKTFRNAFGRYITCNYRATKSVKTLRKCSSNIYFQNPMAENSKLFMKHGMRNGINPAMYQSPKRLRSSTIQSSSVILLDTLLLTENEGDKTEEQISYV

What does the source list for `CCN(CC)C(=O)NC1C=C2c3cccc4[nH]cc(c34)CC2NC1` (stereo not drawn) [6-Norlisurid]?
5-HT2B pA2 [1]: 8.39 ± 0.12; Kb [2]: 1.45 nM

For `CCN(CC)C(=O)NC1CNC2Cc3c[nH]c4cccc(c34)C2C1` (stereo not drawn) [6-Nortergurid], which “5-HT2B pA2” value [1] is on record?
The value was 7.11 ± 0.08.

And the Kb [2]?
The Kb was 14.1 nM.

With `CCN(CC)C(=O)NC1CC2c3cccc4[nH]cc(c34)CC2N(C)C1` (stereo not drawn) [8β-Tergurid] as the molecule, how does the “5-HT2B pA2” value [1] read?
The value was 8.39 ± 0.09.

And the Kb [2]?
The Kb was 5.13 nM.

Which “freie Sauerstoffradikale, die ein Molekül aufnehmen kann” value [3] does the source give for `CCN(CC)C(=O)N[C@H]1C=C2c3cccc4[nH]cc(c34)C[C@H]2N(C)C1` [Lisurid, 3-(9,10-didehydro-6-methylergoline-8alpha-yl)-1,1-diethylurea] here?
Its value is no more than 6.

And the “Abbau von gelöstem Lisurid in Wasser” value [4]?
The value was “schnell zu Produkten abgebaut”.

With `CCNC(=O)NC1C=C2c3cccc4[nH]cc(c34)CC2N(C)C1` (stereo not drawn) [N"-Monodesethyllisurid] as the molecule, how does the “5-HT2B pA2” value [1] read?
Its value is 8.08 ± 0.05.

And the Kb [2]?
The Kb was 5.13 nM.

For `CCNC(=O)NC1CC2c3cccc4[nH]cc(c34)CC2N(C)C1` (stereo not drawn) [N"-Monodesethyltergurid], which “5-HT2B pA2” value [1] is on record?
The value was 7.30 ± 0.02.

And the Kb [2]?
The Kb was 15.1 nM.

With `Cc1cc(NC(=O)Nc2ccc3c(ccn3C)c2)sn1` [SB204741] as the molecule, how does the “5-HT2B pA2” value [5] read?
Its value is 6.59 ± 0.20^d.

For `CCN(CC)C(=O)N[C@H]1C[C@@H]2c3cccc4[nH]cc(c34)C[C@H]2N(C)C1` [Tergurid, trans-Dihydrolisurid], which IC50 [2] is on record?
The IC50 was 0.372 nM.

What about the RVPsys ([6]; Monocrotaline (60 mg/kg s.c.) + 2.5 mg/kg bid by gavage) of the same molecule?
The RVPsys was 39 ± 3 mmHG.

What about the SAP ([6]; Monocrotaline + 2.5 mg/kg bid, systemic arterial pressure) of the same molecule?
Its SAP is 111 ± 7 mmHG.

What about the Hydroxyproline ([6]; lung, Monocrotaline + 2.5 mg/kg bid) of the same molecule?
Its Hydroxyproline is 2.7 ± 1.2 ug/g protein.

What about the “Zellproliferation (3H -Thymidin-Aufnahme)” value [7] of the same molecule?
Its value is “Reduktion der Zellproliferation”.

And the “freie Sauerstoffradikale, die ein Molekül aufnehmen kann” value [3]?
Its value is no more than 4.

What about the “5-HT-induzierter Gewichtsanstieg von Herz und Leber” value (5-HT-induzierte Effekte; rat [Hauso O et al.) of the same molecule?
The value was “verhinderte”.

What about the “Verhaltensabnormalitäten und fibrotische Hautveränderungen an den Injektionsorten von 5-HT” value (5-HT-induzierte Effekte; rat [Hauso O et al.) of the same molecule?
The value was “unterdrückte”.

What about the “pulmonale Klappeninsuffizienz” value (5-HT-induzierte Effekte; rat, daily 5-HT over 4 months [Hauso O et al.) of the same molecule?
The value was “nicht nachweisbar”.

With Oxtergurid as the molecule, how does the “5-HT2B pA2” value [1] read?
The value was 6.42 ± 0.20.

What about the “5-HT2A pA2” value ([2]; pig coronary arteries, conditions as in Beispiel 1) of the same molecule?
The value was 6.99 ± 0.04.
